According to ChEMBL document CHEMBL5331121, “Preferred Conformation-Guided Discovery of Potent and Orally Active HIF Prolyl Hydroxylase 2 Inhibitors for the Treatment of Anemia” (J Med Chem, 2023):
Activity calls are given as the source filed them. No cut-off for these calls is given here.

Columns and labels:
[1] = target: Hypoxia-inducible factor 1-alpha (Homo sapiens) (UniProt Q16665); experiment: Induction of HIF-1alpha stabilization in human Hep3B cells at 20 to 50 uM by Western blotting analysis; type: cell-based; settings: dose 20-50 µM
Sequence of Hypoxia-inducible factor 1-alpha (Homo sapiens) (Q16665 whole entry, looked up, the tested form may be a part): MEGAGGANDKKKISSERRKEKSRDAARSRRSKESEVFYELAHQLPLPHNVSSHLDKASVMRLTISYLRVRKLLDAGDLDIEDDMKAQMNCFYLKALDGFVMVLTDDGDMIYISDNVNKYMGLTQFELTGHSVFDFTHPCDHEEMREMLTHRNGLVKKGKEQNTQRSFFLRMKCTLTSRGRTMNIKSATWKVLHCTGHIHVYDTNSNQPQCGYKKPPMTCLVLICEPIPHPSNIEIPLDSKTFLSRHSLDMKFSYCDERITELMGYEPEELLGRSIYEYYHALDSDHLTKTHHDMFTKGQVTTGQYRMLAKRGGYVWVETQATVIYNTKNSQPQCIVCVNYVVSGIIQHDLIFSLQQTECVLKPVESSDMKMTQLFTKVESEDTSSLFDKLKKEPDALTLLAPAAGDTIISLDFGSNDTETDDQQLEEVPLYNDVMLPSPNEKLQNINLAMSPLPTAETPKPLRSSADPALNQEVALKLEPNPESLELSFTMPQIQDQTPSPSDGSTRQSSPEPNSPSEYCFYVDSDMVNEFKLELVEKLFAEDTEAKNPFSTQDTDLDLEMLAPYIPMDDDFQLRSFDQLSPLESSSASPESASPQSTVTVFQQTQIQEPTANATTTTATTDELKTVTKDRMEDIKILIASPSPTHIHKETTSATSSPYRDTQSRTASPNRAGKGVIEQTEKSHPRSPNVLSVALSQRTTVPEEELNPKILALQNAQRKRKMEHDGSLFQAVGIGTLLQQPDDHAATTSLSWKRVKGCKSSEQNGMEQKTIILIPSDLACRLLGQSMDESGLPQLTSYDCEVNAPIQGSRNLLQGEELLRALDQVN

[2] = target: Endothelial PAS domain-containing protein 1 (Homo sapiens) (UniProt Q99814); experiment: Induction of HIF-2alpha stabilization in human Hep3B cells at 20 to 50 uM by Western blotting analysis; type: cell-based; settings: dose 20-50 µM
Sequence of Endothelial PAS domain-containing protein 1 (Homo sapiens) (Q99814 whole entry, the tested form may be a part): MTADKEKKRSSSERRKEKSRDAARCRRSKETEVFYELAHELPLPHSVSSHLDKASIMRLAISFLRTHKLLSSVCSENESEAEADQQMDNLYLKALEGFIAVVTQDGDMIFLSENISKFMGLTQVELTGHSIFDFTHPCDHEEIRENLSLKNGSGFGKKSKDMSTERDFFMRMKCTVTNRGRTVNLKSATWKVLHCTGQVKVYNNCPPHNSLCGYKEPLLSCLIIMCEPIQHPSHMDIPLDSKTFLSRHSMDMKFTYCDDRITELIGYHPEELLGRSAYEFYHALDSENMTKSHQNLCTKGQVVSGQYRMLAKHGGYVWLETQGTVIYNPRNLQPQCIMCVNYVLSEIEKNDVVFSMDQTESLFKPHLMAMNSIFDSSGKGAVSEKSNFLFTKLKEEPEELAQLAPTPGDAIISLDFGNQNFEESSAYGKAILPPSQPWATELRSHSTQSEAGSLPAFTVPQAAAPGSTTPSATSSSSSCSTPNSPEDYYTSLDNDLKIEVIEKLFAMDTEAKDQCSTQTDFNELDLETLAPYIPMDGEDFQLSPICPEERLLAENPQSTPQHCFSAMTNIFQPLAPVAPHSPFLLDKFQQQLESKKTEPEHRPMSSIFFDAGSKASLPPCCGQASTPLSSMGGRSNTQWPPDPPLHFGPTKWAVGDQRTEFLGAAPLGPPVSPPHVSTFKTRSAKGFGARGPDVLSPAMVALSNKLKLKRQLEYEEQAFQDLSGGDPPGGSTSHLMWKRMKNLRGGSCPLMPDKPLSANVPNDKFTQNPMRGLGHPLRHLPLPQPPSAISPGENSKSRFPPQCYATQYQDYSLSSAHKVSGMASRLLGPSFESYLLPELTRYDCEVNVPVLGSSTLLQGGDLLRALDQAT

Erythrocyte = experiment: Upregulation of reticulocytes in C57BL/6J mouse assessed as increase in RBC at 10 to 50 mg/kg, po administered once daily for 3 days; type: functional, organism-based; settings: dose 10-50 mg/kg, time 3.0 day
Mus musculus = experiment: Upregulation of reticulocytes in C57BL/6J mouse at 10 mg/kg, po administered once daily for 3 days; type: functional, organism-based; settings: time 3.0 day
Egl nine homolog 1 = Egl nine homolog 1 (Homo sapiens, UniProt Q9GZT9); experiment: Binding affinity to […] PHD2 (181 to 426 residues) (unknown origin) by fluorescence polarization assay
Sequence of Egl nine homolog 1 (Q9GZT9 whole entry, the tested form may be a part): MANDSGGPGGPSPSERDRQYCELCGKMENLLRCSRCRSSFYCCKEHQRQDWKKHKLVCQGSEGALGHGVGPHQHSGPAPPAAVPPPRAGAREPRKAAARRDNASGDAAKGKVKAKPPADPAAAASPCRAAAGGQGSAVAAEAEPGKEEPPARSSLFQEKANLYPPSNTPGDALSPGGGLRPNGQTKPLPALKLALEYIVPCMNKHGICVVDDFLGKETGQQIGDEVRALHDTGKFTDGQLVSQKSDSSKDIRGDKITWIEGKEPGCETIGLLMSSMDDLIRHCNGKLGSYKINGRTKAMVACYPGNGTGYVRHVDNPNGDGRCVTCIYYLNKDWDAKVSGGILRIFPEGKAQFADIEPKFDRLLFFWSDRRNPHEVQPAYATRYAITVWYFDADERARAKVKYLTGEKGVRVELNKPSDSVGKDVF

SMILES	Activity [1]	Activity [2]	Activity (Erythrocyte)	Activity (Mus musculus)	IC50 (Egl nine homolog 1) [nM]
Cc1nc(C(=O)NCC(=O)O)c(O)c2ccc(Oc3ccccc3)cc12	Active	Active	Dose-Dependent Effect	Active	–
O=C(O)CNC(=O)c1ncc(C2CCN(C(=O)c3ccccn3)CC2)cc1O	–	–	–	–	158
O=C(O)CNC(=O)c1ncc(C2CCN(C(=O)c3ccccc3Cl)CC2)cc1O	–	–	–	–	131
N#Cc1ccc(C(=O)N2CCC(c3cnc(C(=O)NCC(=O)O)c(O)c3)CC2)cc1	–	–	–	–	76.5
